{"source": "paper PMC7312539", "about": "“Homology Modeling of the Human P-glycoprotein (ABCB1) and Insights into Ligand Binding through Molecular Docking Studies” (International Journal of Molecular Sciences, 2020)", "molecular_target": "efflux pump P-gp (Homo sapiens, UniProt P08183)", "sequence (P08183 whole entry)": "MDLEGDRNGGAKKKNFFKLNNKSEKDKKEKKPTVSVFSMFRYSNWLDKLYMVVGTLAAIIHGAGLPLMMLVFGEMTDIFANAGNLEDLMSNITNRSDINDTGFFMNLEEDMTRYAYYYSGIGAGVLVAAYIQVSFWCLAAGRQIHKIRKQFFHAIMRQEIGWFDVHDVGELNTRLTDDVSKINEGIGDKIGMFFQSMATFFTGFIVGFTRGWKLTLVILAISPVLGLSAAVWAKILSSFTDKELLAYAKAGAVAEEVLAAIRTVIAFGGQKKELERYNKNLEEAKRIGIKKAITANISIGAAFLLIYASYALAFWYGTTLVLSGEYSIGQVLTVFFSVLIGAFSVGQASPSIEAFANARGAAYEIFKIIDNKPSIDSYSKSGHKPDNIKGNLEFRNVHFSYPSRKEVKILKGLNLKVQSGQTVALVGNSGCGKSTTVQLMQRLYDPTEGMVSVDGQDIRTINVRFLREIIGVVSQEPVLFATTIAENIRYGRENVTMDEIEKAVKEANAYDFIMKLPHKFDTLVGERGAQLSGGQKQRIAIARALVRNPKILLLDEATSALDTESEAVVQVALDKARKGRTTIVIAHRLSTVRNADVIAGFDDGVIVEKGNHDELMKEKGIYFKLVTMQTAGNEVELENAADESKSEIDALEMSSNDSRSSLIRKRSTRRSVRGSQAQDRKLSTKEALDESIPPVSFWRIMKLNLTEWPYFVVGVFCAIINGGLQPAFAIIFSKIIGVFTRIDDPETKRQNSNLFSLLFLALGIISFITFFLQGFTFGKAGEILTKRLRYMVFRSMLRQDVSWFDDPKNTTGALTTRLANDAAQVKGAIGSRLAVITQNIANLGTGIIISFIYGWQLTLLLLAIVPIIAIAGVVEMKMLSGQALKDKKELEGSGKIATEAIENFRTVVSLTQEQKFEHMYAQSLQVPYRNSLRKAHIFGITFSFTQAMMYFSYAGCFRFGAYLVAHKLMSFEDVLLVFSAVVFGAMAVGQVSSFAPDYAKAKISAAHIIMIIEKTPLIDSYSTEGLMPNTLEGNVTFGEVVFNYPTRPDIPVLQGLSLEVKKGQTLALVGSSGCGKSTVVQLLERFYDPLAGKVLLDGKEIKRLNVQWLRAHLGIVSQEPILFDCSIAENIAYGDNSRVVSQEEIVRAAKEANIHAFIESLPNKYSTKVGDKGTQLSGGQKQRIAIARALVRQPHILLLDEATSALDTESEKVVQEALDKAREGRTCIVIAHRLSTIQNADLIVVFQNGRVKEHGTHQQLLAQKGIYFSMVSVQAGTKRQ", "details": "Figure 11; for Effect on the rate of excretion of rhodamine 123 (R123) out of Caco-2 cells / interaction with P-gp: Caco-2 cells loaded with 10 μM R123, compared to control DMSO", "procedure": "Results are expressed as percentage compared to the rate of excretion of R123 in the absence of drug (i.e control DMSO). Error bars: SD; verapamil: positive control; diazepam: negative control.\nShortly, Caco-2 cells were washed with HEPES-buffered Ringer’s (RH) solution (NaCl 150 mM, KCl 5.2 mM, CaCl2 2.2 mM, MgCl2 0.2 mM, NaHCO3 6 mM, Glucose 2.8 mM, HEPES 5 mM, water for injection), pH = 7.4 and incubated for 120 min with 10 μM R123. After incubation, cells were washed with RH and incubated with test compounds for one hour during which the rate out (Kout) of R123 (λex = 485 nm and λem = 538 nm) was monitored every 2 minutes with a microplate fluorescence reader (Fluoroskan Ascent FL, Thermo Labsystems, Issy-Les-Moulineaux, France) at 37 °C, after which the cell viability was assessed using MTT cytotoxicity assay kit. Rhodamine Kout was calculated as the slope of the curve of the cumulative R123 fluorescence against the time. Verapamil was used as a positive control and diazepam as negative control."}
{"molecule": "NCCC(O)(P(=O)(O)O)P(=O)(O)O", "note": "[APD, pamidronate]", "values": [{"measurement": "Effect on the rate of excretion of rhodamine 123 (R123) out of Caco-2 cells / interaction with P-gp", "value": "did not show any interaction"}]}
{"molecule": "CS(=O)(=O)OCCCCOS(C)(=O)=O", "note": "[BU, busulfan]", "values": [{"measurement": "Effect on the rate of excretion of rhodamine 123 (R123) out of Caco-2 cells / interaction with P-gp", "value": "not transported by P-gp"}]}
{"molecule": "C[n+]1ccc(-c2cc[n+](C)cc2)cc1", "note": "[PQ, paraquat]", "values": [{"measurement": "Interference with the P-gp mediated efflux of R123 out of Caco-2 cells", "setting": "compound at 50 µM, Caco-2 cells", "value": "do not interfere"}]}
{"molecule": "CCCC(CCC)C(=O)O", "note": "[VPA, valproic acid]", "values": [{"measurement": "Effect on the rate of excretion of rhodamine 123 (R123) out of Caco-2 cells / interaction with P-gp", "value": "not transported by P-gp"}]}
